# According to ChEMBL document CHEMBL1201861, “Genomics of Drug Sensitity in Cancer screening data, Wellcome Trust Sanger Institute”:
# Key:
# GP5d = assay: cells; format: functional, cell-based; conditions: Homo sapiens;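 note: growth inhibition of human GP5d cells, read out with a cell viability assay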
# Description: SANGER: Inhibition of human GP5d cell growth in a cell viability assay.
# CESS = assay: SANGER: Inhibition of human CESS cell growth in a cell viability assay.; format: functional, cell-based; conditions: Homo sapiens, CESS
# HCC1806 = assay: cells; format: functional, cell-based; conditions: Homo sapiens;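 note: growth inhibition of the cancer cell line, determined with a cell viability assay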
# Description: SANGER: Inhibition of human HCC1806 cell growth in a cell viability assay.
# CAMA-1 = assay: cells; format: functional, cell-based; conditions: Homo sapiens;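 note: growth inhibition of CAMA-1 cells, read out with a cell viability assay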
# Description: SANGER: Inhibition of human CAMA-1 cell growth in a cell viability assay.
# NCI-H1563 = assay: cells; format: functional, cell-based; conditions: Homo sapiens;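 note: growth inhibition of human NCI-H1563 cells, read out with a cell viability assay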
# Description: SANGER: Inhibition of human NCI-H1563 cell growth in a cell viability assay.
# A2058 = assay: cells; format: functional, cell-based; conditions: Homo sapiens;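 note: reduction of A2058 cell growth, read out with a viability assay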
# Description: SANGER: Inhibition of human A2058 cell growth in a cell viability assay.
# NCCIT = assay: SANGER: Inhibition of human NCCIT cell growth in a cell viability assay.; format: functional, cell-based; conditions: Homo sapiens, NCCIT
# DU-145 = assay: cells; format: functional, cell-based; conditions: Homo sapiens
# Description: SANGER: Inhibition of human DU-145 cell growth in a cell viability assay.
# UMUC3 = assay: cells; format: functional, cell-based; conditions: Homo sapiens;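 note: growth inhibition of human UM-UC-3 cells, read out with a cell viability assay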
# Description: SANGER: Inhibition of human UM-UC-3 cell growth in a cell viability assay.
# KYSE-150 cell line = assay: cells; format: functional, cell-based; conditions: Homo sapiens;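 note: growth inhibition of human KYSE-150 cells, read out with a cell viability assay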
# Description: SANGER: Inhibition of human KYSE-150 cell growth in a cell viability assay.
# HT1197 = assay: cells; format: functional, cell-based, HT-1197; conditions: Homo sapiens
# Description: SANGER: Inhibition of human HT-1197 cell growth in a cell viability assay.
# KYSE-510 = assay: cells; format: functional, cell-based; conditions: Homo sapiens;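 note: cell viability readout used to measure how strongly growth of the cell line is suppressed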
# Description: SANGER: Inhibition of human KYSE-510 cell growth in a cell viability assay.
# MKN-28 = assay: cells; format: functional, cell-based; conditions: Homo sapiens;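 note: cell viability assay read-out, IC50 reflects suppression of growth of human MKN-28 cells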
# Description: SANGER: Inhibition of human MKN28 cell growth in a cell viability assay.
# A2780 = assay: cells; format: functional, cell-based; conditions: Homo sapiens;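 note: growth inhibition of A2780 cells, read out with a cell viability assay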
# Description: SANGER: Inhibition of human A2780 cell growth in a cell viability assay.
# COR-L105 = assay: cells; format: functional, cell-based; conditions: Homo sapiens
# Description: SANGER: Inhibition of human COR-L105 cell growth in a cell viability assay.
# NCI-H2081 = assay: cells; format: functional, cell-based, Homo sapiens; conditions: Homo sapiens, NCI-H2081;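 note: growth inhibition of human NCI-H2081 cells, read out with a cell viability assay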
# Description: SANGER: Inhibition of human NCI-H2081 cell growth in a cell viability assay.
# SAOS-2 = assay: cells; format: functional, cell-based; conditions: Homo sapiens;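 note: growth inhibition of human Saos-2 cells determined by a cell viability assay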
# Description: SANGER: Inhibition of human Saos-2 cell growth in a cell viability assay.
# VM-CUB-1 = assay: cells; format: functional, cell-based; conditions: Homo sapiens;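 note: cell viability assay measuring growth inhibition of the human VM-CUB-1 cell line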
# Description: SANGER: Inhibition of human VM-CUB-1 cell growth in a cell viability assay.
# NCI-H727 = assay: cells; format: functional, cell-based; conditions: Homo sapiens;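 note: growth inhibition of human NCI-H727 cells, read out with a cell viability assay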
# Description: SANGER: Inhibition of human NCI-H727 cell growth in a cell viability assay.
# D-392MG = assay: cells; format: functional, cell-based; conditions: Homo sapiens
# TE-15 = assay: cells; format: functional, cell-based, Homo sapiens; conditions: Homo sapiens, TE-15;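 note: cell viability readout of growth inhibition in TE-15 cells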
# Description: SANGER: Inhibition of human TE-15 cell growth in a cell viability assay.
# SNU-16 = assay: cells; format: functional, cell-based, Homo sapiens; conditions: Homo sapiens, SNU-16;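 note: growth inhibition of human SNU-16 cells, determined with a cell viability readout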
# Description: SANGER: Inhibition of human NCI-SNU-16 cell growth in a cell viability assay.
# CAL-72 = assay: cells; format: functional, cell-based; conditions: Homo sapiens;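 note: cell viability assay measuring inhibition of proliferation in the CAL-72 cell line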
# Description: SANGER: Inhibition of human CAL-72 cell growth in a cell viability assay.
# BL-70 = assay: SANGER: Inhibition of human BL-70 cell growth in a cell viability assay.; format: functional, cell-based; conditions: Homo sapiens, BL-70
# CAL-54 = assay: cells; format: functional, cell-based; conditions: Homo sapiens;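 note: growth inhibition of CAL-54 cells, read out by a viability measurement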
# Description: SANGER: Inhibition of human CAL-54 cell growth in a cell viability assay.
# BL-41 = assay: cells; format: functional, cell-based; conditions: Homo sapiens;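 note: growth inhibition of human BL-41 cells, read out with a cell viability assay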
# Description: SANGER: Inhibition of human BL-41 cell growth in a cell viability assay.
# LoVo = assay: cells; format: functional, cell-based; conditions: Homo sapiens;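 note: growth inhibition of human LoVo cells, read out with a cell viability assay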
# Description: SANGER: Inhibition of human LoVo cell growth in a cell viability assay.
# NCI-H322M = assay: cells; format: functional, cell-based, Homo sapiens; conditions: Homo sapiens, NCI-H322M;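 note: cell viability assay measuring inhibition of growth of human NCI-H322M cells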
# Description: SANGER: Inhibition of human NCI-H322M cell growth in a cell viability assay.
# LN-405 = assay: cells; format: functional, cell-based; conditions: Homo sapiens
# Description: SANGER: Inhibition of human LN-405 cell growth in a cell viability assay.
# SW1990 = assay: cells; format: functional, cell-based; conditions: Homo sapiens
# Description: SANGER: Inhibition of human SW1990 cell growth in a cell viability assay.
# BPH-1 = assay: cells; format: functional, cell-based; conditions: Homo sapiens;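 note: cell viability assay measuring growth inhibition of human BPH-1 cells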
# Description: SANGER: Inhibition of human BPH-1 cell growth in a cell viability assay.
# BOKU = assay: cells; format: functional, cell-based; conditions: Homo sapiens;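 note: growth inhibition of the human BOKU cell line, read out by a cell viability assay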
# Description: SANGER: Inhibition of human BOKU cell growth in a cell viability assay.
# ACHN = assay: cells; format: functional, cell-based; conditions: Homo sapiens;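 note: cell viability read-out used to gauge how strongly growth of human ACHN cells is suppressed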
# Description: SANGER: Inhibition of human ACHN cell growth in a cell viability assay.
# U-698-M = assay: cells; format: functional, cell-based, Homo sapiens; conditions: Homo sapiens, U-698-M
# Description: SANGER: Inhibition of human U-698-M cell growth in a cell viability assay.
# H4 = assay: cells; format: functional, cell-based; conditions: Homo sapiens
# Description: SANGER: Inhibition of human H4 cell growth in a cell viability assay.
# SCC-25 = assay: cells; format: functional, cell-based; conditions: Homo sapiens;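 note: growth inhibition of SCC-25 cells, measured with a cell viability assay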
# Description: SANGER: Inhibition of human SCC-25 cell growth in a cell viability assay.
# FTC-133 = assay: cells; format: functional, cell-based; conditions: Homo sapiens
# EW-24 = assay: cells; format: functional, cell-based, Homo sapiens; conditions: Homo sapiens, EW-24;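 note: human EW-24 cancer cell line, growth inhibition read out via a cell viability assay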
# Description: SANGER: Inhibition of human EW-24 cell growth in a cell viability assay.
# NCI-H1573 = assay: cells; format: functional, cell-based; conditions: Homo sapiens;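 note: growth inhibition of NCI-H1573 cells, read out with a cell viability assay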
# Description: SANGER: Inhibition of human NCI-H1573 cell growth in a cell viability assay.
# CAL-33 = assay: cells; format: functional, cell-based; conditions: Homo sapiens;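 note: growth inhibition of CAL-33 cells, read out with a cell viability assay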
# Description: SANGER: Inhibition of human CAL-33 cell growth in a cell viability assay.
# Capan-2 = assay: cells; format: functional, cell-based; conditions: Homo sapiens;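 note: Capan-2 cell growth inhibition, read out with a viability assay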
# Description: SANGER: Inhibition of human Capan-2 cell growth in a cell viability assay.
# ARH-77 = assay: cells; format: functional, cell-based, Homo sapiens; conditions: Homo sapiens, ARH-77;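 note: growth inhibition of ARH-77 cells, read out by a cell viability assay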
# Description: SANGER: Inhibition of human ARH-77 cell growth in a cell viability assay.
# SK-N-AS = assay: cells; format: functional, cell-based; conditions: Homo sapiens;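 note: growth inhibition of human SK-N-AS cells, measured with a cell viability assay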
# Description: SANGER: Inhibition of human SK-N-AS cell growth in a cell viability assay.
# NCI-H748 = assay: cells; format: functional, cell-based, Homo sapiens; conditions: Homo sapiens, NCI-H748;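 note: growth inhibition of NCI-H748 cells, measured by a cell viability assay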
# Description: SANGER: Inhibition of human NCI-H748 cell growth in a cell viability assay.
# COLO-678 = assay: cells; format: functional, cell-based; conditions: Homo sapiens
# Description: SANGER: Inhibition of human COLO-678 cell growth in a cell viability assay.
# J82 = assay: cells; format: functional, cell-based; conditions: Homo sapiens;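 note: growth inhibition of J82 cells, read out with a cell viability assay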
# Description: SANGER: Inhibition of human J82 cell growth in a cell viability assay.
# HCC70 = assay: cells; format: functional, cell-based; conditions: Homo sapiens;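 note: cell viability assay measuring how strongly the compound suppresses proliferation of HCC70 cells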
# Description: SANGER: Inhibition of human HCC70 cell growth in a cell viability assay.
# NCI-H520 = assay: cells; format: functional, cell-based; conditions: Homo sapiens;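 note: growth inhibition of NCI-H520 cells, measured by a cell viability assay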
# Description: SANGER: Inhibition of human NCI-H520 cell growth in a cell viability assay.
# HPAF-II = assay: cells; format: functional, cell-based; conditions: Homo sapiens;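 note: growth inhibition of HPAF-II cells, read out with a cell viability assay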
# Description: SANGER: Inhibition of human HPAF-II cell growth in a cell viability assay.
# LCLC-97TM1 = assay: cells; format: functional, cell-based; conditions: Homo sapiens;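 note: cell viability assay measuring growth inhibition of human LCLC-97TM1 cells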
# Description: SANGER: Inhibition of human LCLC-97TM1 cell growth in a cell viability assay.
# MIA PaCa-2 = assay: cells; format: functional, cell-based; conditions: Homo sapiens;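 note: growth inhibition of MIA PaCa-2 cells, read out with a cell viability assay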
# Description: SANGER: Inhibition of human MIA-PaCa-2 cell growth in a cell viability assay.
# NCI-H2087 = assay: cells; format: functional, cell-based; conditions: Homo sapiens;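 note: growth inhibition determined with a cell viability readout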
# Description: SANGER: Inhibition of human NCI-H2087 cell growth in a cell viability assay.
# COLO-741 = assay: cells; format: functional, cell-based; conditions: Homo sapiens
# Description: SANGER: Inhibition of human COLO-741 cell growth in a cell viability assay.
# 769-P = assay: cells; format: functional, cell-based; conditions: Homo sapiens
# Description: SANGER: Inhibition of human 769-P cell growth in a cell viability assay.
# OPM-2 = assay: cells; format: functional, cell-based, Homo sapiens; conditions: Homo sapiens, OPM-2;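 note: growth of OPM-2 cells measured with a viability assay, IC50 for suppression of proliferation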
# Description: SANGER: Inhibition of human OPM-2 cell growth in a cell viability assay.
# SW948 = assay: cells; format: functional, cell-based; conditions: Homo sapiens;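 note: growth inhibition of SW948 cells, read out with a cell viability assay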
# Description: SANGER: Inhibition of human SW948 cell growth in a cell viability assay.
# TYK-nu = assay: cells; format: functional, cell-based; conditions: Homo sapiens;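 note: growth inhibition of human TYK-nu cells, read out by a cell viability assay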
# Description: SANGER: Inhibition of human TYK-nu cell growth in a cell viability assay.
# HuTu80 = assay: cells; format: functional, cell-based, Homo sapiens, HUTU-80; conditions: Homo sapiens, HuTu80;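 note: growth inhibition of HuTu80 human cells, determined with a cell viability readout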
# Description: SANGER: Inhibition of human HUTU-80 cell growth in a cell viability assay.
# FaDu = assay: cells; format: functional, cell-based; conditions: Homo sapiens;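 note: cell viability readout of growth inhibition in FaDu cells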
# Description: SANGER: Inhibition of human FADU cell growth in a cell viability assay.
# KMS-12-PE = assay: cells; format: functional, cell-based, Homo sapiens; conditions: Homo sapiens, KMS-12-PE;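 note: growth inhibition of human KMS-12-PE cells, measured with a cell viability assay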
# Description: SANGER: Inhibition of human KMS-12-PE cell growth in a cell viability assay.
smiles,measurement,setting,value
CCCCCCCCCCCC1=C(O)C(=O)C=C(O)C1=O [EMBELIN],IC50,GP5d,8600 nM
same,IC50,CESS,6240 nM
same,IC50,HCC1806,> 32000 nM
same,IC50,CAMA-1,7090 nM
same,IC50,NCI-H1563,> 32000 nM
same,IC50,A2058,2320 nM
same,IC50,NCCIT,19200 nM
same,IC50,DU-145,8760 nM
same,IC50,UMUC3,10100 nM
same,IC50,KYSE-150 cell line,12100 nM
same,IC50,HT1197,25300 nM
same,IC50,KYSE-510,5810 nM
same,IC50,MKN-28,10000 nM
same,IC50,A2780,13200 nM
same,IC50,COR-L105,22300 nM
same,IC50,NCI-H2081,> 32000 nM
same,IC50,SAOS-2,3950 nM
same,IC50,VM-CUB-1,10800 nM
same,IC50,NCI-H727,7880 nM
same,IC50,D-392MG,16600 nM
same,IC50,TE-15,7240 nM
same,IC50,SNU-16,> 32000 nM
same,IC50,CAL-72,10400 nM
same,IC50,BL-70,5830 nM
same,IC50,CAL-54,20400 nM
same,IC50,BL-41,5500 nM
same,IC50,LoVo,3870 nM
same,IC50,NCI-H322M,> 32000 nM
same,IC50,LN-405,18800 nM
same,IC50,SW1990,6490 nM
same,IC50,BPH-1,> 32000 nM
same,IC50,BOKU,10700 nM
same,IC50,ACHN,> 32000 nM
same,IC50,U-698-M,25200 nM
same,IC50,H4,4130 nM
same,IC50,SCC-25,> 32000 nM
same,IC50,FTC-133,> 32000 nM
same,IC50,EW-24,> 32000 nM
same,IC50,NCI-H1573,14200 nM
same,IC50,CAL-33,22900 nM
same,IC50,Capan-2,18300 nM
same,IC50,ARH-77,16400 nM
same,IC50,SK-N-AS,13800 nM
same,IC50,NCI-H748,> 32000 nM
same,IC50,COLO-678,> 32000 nM
same,IC50,J82,11800 nM
same,IC50,HCC70,> 32000 nM
same,IC50,NCI-H520,13200 nM
same,IC50,HPAF-II,25400 nM
same,IC50,LCLC-97TM1,5960 nM
same,IC50,MIA PaCa-2,4700 nM
same,IC50,NCI-H2087,5450 nM
same,IC50,COLO-741,7420 nM
same,IC50,769-P,8470 nM
same,IC50,OPM-2,> 32000 nM
same,IC50,SW948,> 32000 nM
same,IC50,TYK-nu,22600 nM
same,IC50,HuTu80,2350 nM
same,IC50,FaDu,15800 nM
same,IC50,KMS-12-PE,> 32000 nM
C/C(=C\c1csc(C)n1)[C@@H]1C[C@@H]2O[C@]2(C)CCC[C@H](C)[C@H](O)[C@@H](C)C(=O)C(C)(C)[C@@H](O)CC(=O)O1 [PATUPILONE],IC50,GP5d,3.09 nM
same,IC50,CESS,3.38 nM
same,IC50,HCC1806,1.38 nM
same,IC50,CAMA-1,12.9 nM
same,IC50,NCI-H1563,> 32 nM
same,IC50,A2058,0.601 nM
same,IC50,NCCIT,1.73 nM
same,IC50,DU-145,0.721 nM
same,IC50,UMUC3,1.85 nM
same,IC50,KYSE-150 cell line,0.499 nM
same,IC50,HT1197,> 32 nM
same,IC50,KYSE-510,0.0738 nM
same,IC50,MKN-28,0.462 nM
same,IC50,A2780,2.09 nM
same,IC50,COR-L105,9.54 nM
same,IC50,NCI-H2081,> 32 nM
same,IC50,SAOS-2,> 32 nM
same,IC50,VM-CUB-1,3.09 nM
same,IC50,NCI-H727,1.8 nM
same,IC50,D-392MG,> 32 nM
same,IC50,TE-15,0.225 nM
same,IC50,SNU-16,31 nM
same,IC50,CAL-72,> 32 nM
same,IC50,BL-70,2.16 nM
same,IC50,CAL-54,> 32 nM
same,IC50,BL-41,1.35 nM
same,IC50,LoVo,1.85 nM
same,IC50,NCI-H322M,> 32 nM
same,IC50,LN-405,> 32 nM
same,IC50,SW1990,> 32 nM
same,IC50,BPH-1,0.521 nM
same,IC50,BOKU,> 32 nM
same,IC50,ACHN,0.749 nM
same,IC50,U-698-M,7.76 nM
same,IC50,H4,0.975 nM
same,IC50,SCC-25,1.22 nM
same,IC50,FTC-133,30.5 nM
same,IC50,EW-24,> 32 nM
same,IC50,NCI-H1573,6.42 nM
same,IC50,CAL-33,1.52 nM
same,IC50,Capan-2,30 nM
same,IC50,ARH-77,6.13 nM
same,IC50,SK-N-AS,> 32 nM
same,IC50,NCI-H748,> 32 nM
same,IC50,COLO-678,> 32 nM
same,IC50,J82,1.41 nM
same,IC50,HCC70,4.79 nM
same,IC50,NCI-H520,2.95 nM
same,IC50,HPAF-II,21 nM
same,IC50,LCLC-97TM1,0.444 nM
same,IC50,MIA PaCa-2,1.31 nM
same,IC50,NCI-H2087,3.11 nM
same,IC50,COLO-741,2.72 nM
same,IC50,769-P,0.753 nM
same,IC50,OPM-2,> 32 nM
same,IC50,SW948,17.8 nM
same,IC50,TYK-nu,> 32 nM
same,IC50,HuTu80,0.328 nM
same,IC50,FaDu,26.2 nM
same,IC50,KMS-12-PE,> 32 nM
